From patent publication US20220117913A1, “DEZOCINE DERIVATIVE AND MEDICAL USE THEREOF” (YANGTZE RIVER PHARMACEUTICAL GROUP CO., LTD., priority 2019, published 2022)
Where a name gives a salt, the structure may show the parent alone. Read-outs that look alike come from different tables or passages of the source.

What was measured:
[1] = pharmacokinetic investigation of intravenous administration in mice; assay type: in vivo; conditions: mouse; male mice, intravenous injection, plasma
Protocol: Male mice were injected intravenously with the compound of the present disclosure, and the concentration of the unchanged compound in plasma and the concentration of the metabolite of dezocine hydrochloride were measured after the administration.

μ opioid receptor = μ opioid receptor (Homo sapiens, UniProt P35372); assay: radioisotope ligand competitive binding assay, μ opioid receptor (MOR); conditions: [3H]DAMGO 0.5 nM, cell membrane of stably transfected cells; read-out: μ IC50
κ opioid receptor = κ opioid receptor (Homo sapiens, UniProt P41145); assay: radioisotope ligand competitive binding assay, κ opioid receptor (KOR); conditions: [3H]Diprenorphine 0.3 nM, cell membrane of stably transfected cells; read-out: κ IC50
Text: (§1) Through the radioisotope ligand competitive binding assay, IC50 of the compound was used as an indicator to evaluate the affinity of the compound to κ and δ opioid receptors.
(§2) (1) Reagents • The cell membrane was extracted from stably transfected cells constructed by WuXi AppTec, Shanghai. • 3H-diprenophrine (PerkinElmer, Cat: NET1121250UC, Lot: 2143599) • 3H-DAMGO (PerkinElmer, Cat: NET902250UC, Lot: 2139100) • 3H-DADLE (PerkinElmer, Cat: NET648250UC, Lot: 2060549) • Tris base (Sigma, Cat: T6066-1KG), prepare 1M stock and adjust pH to 7.4. • 0.5M EDTA (Invitrogen, Cat: 15575-038) • 1M MgCl2 (Sigma, Cat: M1028-100 ml) • PEI (Poly ethyleneimine) (Sigma, Cat: P3143) • Microscint 20 cocktail (PerkinElmer, Cat: 6013329) • Naltrindole (Sigma, Cat; N115) • (±)trans-U-50488 (Sigma, Cat: D8040) • DAMGO (Sigma, Cat: E7384)
(§3) (1) 1 μL of the test compounds, negative control (i.e., DMSO) and positive control (i.e., non-specific binding well compound), after being prepared, were respectively transferred to a 96-well plate;
(§4) (2) 99 μL of the prepared opioid receptor membrane protein was added to each well of the 96-well plate containing 1 μL of the compound;
(§5) (3) 100 μL of 2× corresponding radioisotope ligand was added to each well;
(§6) (4) The plate was placed on a shake and incubated at room temperature for 1 hour;
(§7) (5) Each well of the GF/C plate was soaked with 50 μL of 0.3% PEI for at least half an hour in advance;
(§8) (6) After the incubation was finished, the GF/C plate was washed with plate washing buffer once by using Harvest. Then, the cell membranes in the 96-well plate were collected onto the GF/C plate using Harvest, and the GF/C plate was washed four times with the plate washing buffer, each time about 250 μL;
(§9) (7) The GF/C plate was placed in an oven at 50° C. for 1 hour;
(§10) (8) The bottom of the GF/C plate was sealed with a plate sealing film, 50 μL of Microscint-20 scintillation fluid was added to each well, and then the plate was sealed with a transparent sealing film for microplate;
(§11) (9) The radioactive signal value CPM was read using MicroBeta2;
(§12) (10) The data was analyzed with Prism 5. The percentage inhibition rate was calculated with the calculation formula: % Inh=(1-Background subtracted Assay value/Background subtracted HC value)*100.

[2] = system: pain induced by hot plate in mice; assay: pain induced by hot plate in mice; assay type: in vivo; conditions: Mus musculus; male mice
Text: (§13) A mode of pain induced by heat radiation in mice and a mode of pain induced by hot plate in mice were used to evaluate the analgesic intensity of the test compounds.

[3] = system: pain induced by heat radiation in mice; assay: pain induced by heat radiation in mice (light and heat-induced pain); assay type: in vivo; conditions: for ED50: Mus musculus
Text: as §13

δ opioid receptor = δ opioid receptor (Homo sapiens, UniProt P41143); assay: radioisotope ligand competitive binding assay, δ opioid receptor (DOR); conditions: [3H]-DADLE 0.5 nM, cell membrane of stably transfected cells; read-out: δ IC50
Text: as §1, §2, §3, §4, §5, §6, §7, §8, §9, §10, §11, §12

[4] = female mice, read-out: Light and heat-induced pain ED50 Female
[5] = male mice, read-out: Light and heat-induced pain ED50 Male

Row | Compound | half-life [1] [h] | IC50 (μ opioid receptor) [nM] | IC50 (κ opioid receptor) [nM] | ED50 [2] [mg/kg] | ED50 [3, 4] [mg/kg] | ED50 [3, 5] [mg/kg] | Light and heat-induced pain ED95 Female ([3]; female mice) [mg/kg] | analgesic effect (comparison in words) ([3]; four mouse models of pain (heat radiation and hot plate), versus dezocine) | Light and heat-induced pain ED95 Male ([3]; male mice) [mg/kg] | IC50 (δ opioid receptor) [nM]
1 | C[C@@]12CCCCC[C@@H](Cc3ccc(O)cc31)[C@@H]2NCc1ccccc1 [Hydrochloride of compound 26] | 1.35 | < 10 | < 10 | 0.045 | 0.025 | 0.017 | 0.043 | strongest analgesic effect | 0.021 | < 10
2 | CCCCN[C@H]1[C@H]2CCCCC[C@]1(C)c1cc(O)ccc1C2 [Hydrochloride of compound 21] | 1.27 | < 10 | 10 to 100 | 0.15 | 0.068 | 0.12 | 0.083 |  | 0.18 | 10 to 100
